This is an account of results in paper PMC8934569 (Cancer chemotherapy and pharmacology, 2021).

The test system of series [1] is metastatic breast cancer. The following applies: with veliparib 200 mg BID in 21-day cycles; cited from earlier work.
Series [2] in a line: Drug-related adverse events graded by NCI CTCAE version 4.0. Type of series: in vivo, human. The following applies: overall, 80 patients enrolled; given with veliparib.
Series [3] concerns MX-1 BRCA1 deficient breast cancer model. The following applies: in vivo; cited from earlier work.
For series [4] the following is noted: cyclophosphamide iv at 450 mg/m^2 and 750 mg/m^2.

Take `O=P1(N(CCCl)CCCl)NCCCO1` (stereo not shown) [cyclophosphamide]: the “Recommended phase II dose of cyclophosphamide” value in series [1] is 125 mg po daily. The “Patients with a dose reduction of cyclophosphamide” value in series [2] is given as 3 patients. In series [3], the “Tumor effect of single agent” value is on record as “only delayed tumor growth slightly”. Besides, the “Effect of oral veliparib on cyclophosphamide PK” value in series [4] was “not influenced by veliparib”.
